US20110086877A1 (priority 2005, published 2011)
Values joined by “and” are separate entries in the source; they are usually repeats but may differ in a detail not shown here. Identical values can stand only once.

Legend:
[1] = molecular target: T1, BoNT/A LC (Clostridium botulinum, UniProt P0DPI0); test: biochemical; assay type: binding
[2] = molecular target: anthrax lethal factor (Bacillus anthracis, UniProt P15917); assay type: biochemical
[3] = molecular target: BoNT/A LC metalloprotease (Clostridium botulinum, UniProt P0DPI0); test: biochemical
BoNT/A LC metalloprotease, sequence (P0DPI0 2-448 limits assumed): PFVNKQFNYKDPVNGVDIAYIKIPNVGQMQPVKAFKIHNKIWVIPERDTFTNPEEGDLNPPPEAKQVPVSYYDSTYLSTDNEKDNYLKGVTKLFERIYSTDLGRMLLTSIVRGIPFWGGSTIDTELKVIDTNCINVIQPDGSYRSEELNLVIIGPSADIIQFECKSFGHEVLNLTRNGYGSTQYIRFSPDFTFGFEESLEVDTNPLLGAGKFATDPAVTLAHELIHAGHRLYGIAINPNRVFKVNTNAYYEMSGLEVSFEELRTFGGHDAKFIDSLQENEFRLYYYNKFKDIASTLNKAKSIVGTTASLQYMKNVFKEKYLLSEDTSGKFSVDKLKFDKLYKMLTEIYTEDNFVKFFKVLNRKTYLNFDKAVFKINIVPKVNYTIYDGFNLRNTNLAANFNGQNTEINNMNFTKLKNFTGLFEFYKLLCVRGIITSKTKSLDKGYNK

[4] = molecular target: BoNT/A holotoxin (Clostridium botulinum, UniProt P0DPI1); assay type: cell-based
BoNT/A holotoxin, sequence (P0DPI1 2-448 limits assumed): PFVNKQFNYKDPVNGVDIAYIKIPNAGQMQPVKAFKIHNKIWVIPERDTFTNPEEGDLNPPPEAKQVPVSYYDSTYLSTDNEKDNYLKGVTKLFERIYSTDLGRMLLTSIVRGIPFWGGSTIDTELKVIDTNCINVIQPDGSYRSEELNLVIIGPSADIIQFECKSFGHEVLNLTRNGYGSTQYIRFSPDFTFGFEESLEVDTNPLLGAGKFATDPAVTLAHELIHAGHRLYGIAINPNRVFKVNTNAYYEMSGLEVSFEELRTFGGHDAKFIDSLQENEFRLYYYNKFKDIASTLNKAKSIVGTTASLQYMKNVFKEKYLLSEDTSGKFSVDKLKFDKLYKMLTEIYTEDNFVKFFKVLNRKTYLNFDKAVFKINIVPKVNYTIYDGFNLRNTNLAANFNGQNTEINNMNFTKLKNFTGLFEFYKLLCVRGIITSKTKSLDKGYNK

[5] = system: chick spinal motor neurons
[6] = molecular target: T1, BoNT/A LC; conditions: cited from earlier work

T1 sequence (P0DPI0 2-448 limits assumed): as the sequence (P0DPI0 2-448 limits assumed) above
anthrax lethal factor, sequence (P15917 34-809 limits assumed): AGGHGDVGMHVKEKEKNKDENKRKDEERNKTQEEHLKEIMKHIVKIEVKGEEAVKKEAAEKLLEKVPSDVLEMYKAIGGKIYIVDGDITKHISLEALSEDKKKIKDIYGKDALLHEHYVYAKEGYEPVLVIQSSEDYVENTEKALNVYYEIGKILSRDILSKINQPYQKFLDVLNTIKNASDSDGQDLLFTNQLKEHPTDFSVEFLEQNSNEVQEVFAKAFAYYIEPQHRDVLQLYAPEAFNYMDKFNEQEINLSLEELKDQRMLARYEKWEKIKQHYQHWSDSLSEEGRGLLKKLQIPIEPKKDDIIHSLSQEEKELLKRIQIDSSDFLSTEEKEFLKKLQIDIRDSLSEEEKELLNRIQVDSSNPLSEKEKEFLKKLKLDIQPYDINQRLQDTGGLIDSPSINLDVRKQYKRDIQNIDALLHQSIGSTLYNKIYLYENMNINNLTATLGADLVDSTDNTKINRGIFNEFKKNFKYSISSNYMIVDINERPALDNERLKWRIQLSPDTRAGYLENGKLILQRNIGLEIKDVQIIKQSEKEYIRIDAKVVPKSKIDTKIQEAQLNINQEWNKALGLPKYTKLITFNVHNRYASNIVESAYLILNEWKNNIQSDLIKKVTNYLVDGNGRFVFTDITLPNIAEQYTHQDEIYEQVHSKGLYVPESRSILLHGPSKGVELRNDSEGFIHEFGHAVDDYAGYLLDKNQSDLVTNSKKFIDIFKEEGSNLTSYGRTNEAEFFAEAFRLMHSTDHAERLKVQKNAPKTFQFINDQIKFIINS

N=C(N)c1ccc(Oc2ccc(-c3cc4ccc(C(=N)N)cc4[nH]3)cc2)cc1 [NSC 240898]
ΔH [1]: −3.04 and −3.04 ± 0.20 kcal mol^−1
ΔS [1]: 14 and 14.0 cal mol^−1 K^−1
Kd ([1]; Kd): ~4.6 µM and 4.6 µM
Ka ([1]; pH 7.4): 218000 ± 45000 M⁻¹
N (number of binding sites, stoichiometry) ([1]; pH 7.4): 0.83±0.04
inhibition of protease activity of anthrax lethal factor [2]: inhibit the protease activity of anthrax lethal factor
% Inhibition of BoNT/A LC metalloprotease activity [3]: 61%
inhibition of SNAP-25 cleavage [4]: robust dose-dependent inhibition
morphological signs of damage (tubulin, actin, DNA staining) [5]: little or no morphological signs of damage
concentration tolerated by cells without substantial cytotoxic effects ([5]; chick): about 40 μM

N=C(N)c1ccc2oc(/C=C/c3cc4cc(C(=N)N)ccc4s3)cc2c1 [NSC 266472]
% Inhibition of BoNT/A LC metalloprotease activity [3]: 57%

C(=C\c1cc2cc(C3=NCCN3)ccc2o1)/c1cc2cc(C3=NCCN3)ccc2o1 [NSC 278999]
% Inhibition of BoNT/A LC metalloprotease activity [3]: 53%

N=C(N)c1ccc2[nH]c(/C=C/c3cc4cc(C(=N)N)ccc4o3)cc2c1 [NSC 290107]
inhibition of protease activity of anthrax lethal factor [2]: inhibit the protease activity of anthrax lethal factor
% Inhibition of BoNT/A LC metalloprotease activity [3]: 52%

C(=C\c1cc2cc(C3=NCCN3)ccc2o1)/c1cc2cc(C3=NCCN3)ccc2[nH]1 [NSC 290108]
inhibition of protease activity of anthrax lethal factor [2]: inhibit the protease activity of anthrax lethal factor
% Inhibition of BoNT/A LC metalloprotease activity [3]: 51%

N=C(N)c1ccc2cc(/C=C/c3cc4ccc(C(=N)N)cc4o3)[nH]c2c1 [NSC 294200]
inhibition of protease activity of anthrax lethal factor [2]: inhibit the protease activity of anthrax lethal factor
% Inhibition of BoNT/A LC metalloprotease activity [3]: 48%

N=C(N)c1ccc2[nH]c(/C=C/c3cc4ccc(C(=N)N)cc4o3)cc2c1 [NSC 294203]
inhibition of protease activity of anthrax lethal factor [2]: inhibit the protease activity of anthrax lethal factor
% Inhibition of BoNT/A LC metalloprotease activity [3]: 46%

C(=C\c1cc2ccc(C3=NCCN3)cc2o1)/c1cc2cc(C3=NCCN3)ccc2[nH]1 [NSC 294204]
inhibition of protease activity of anthrax lethal factor [2]: inhibit the protease activity of anthrax lethal factor
% Inhibition of BoNT/A LC metalloprotease activity [3]: 38%

C(=C\c1cc2ccc(C3=NCCN3)cc2o1)/c1cc2ccc(C3=NCCN3)cc2o1 [NSC 294494]
% Inhibition of BoNT/A LC metalloprotease activity [3]: 45%

N=C(N)c1ccc2oc(/C=C/C=C/c3cc4cc(C(=N)N)ccc4o3)cc2c1 [NSC 300511]
inhibition of protease activity of anthrax lethal factor [2]: inhibit the protease activity of anthrax lethal factor
% Inhibition of BoNT/A LC metalloprotease activity [3]: 37%

C(/C=C/c1cc2cc(C3=NCCN3)ccc2o1)=C\c1cc2cc(C3=NCCN3)ccc2o1 [NSC 308571]
inhibition of protease activity of anthrax lethal factor [2]: inhibit the protease activity of anthrax lethal factor
% Inhibition of BoNT/A LC metalloprotease activity [3]: 52%

N=C(N)c1ccc2oc(/C=C/C=C/C=C/c3cc4cc(C(=N)N)ccc4o3)cc2c1 [NSC 308574]
inhibition of protease activity of anthrax lethal factor [2]: inhibit the protease activity of anthrax lethal factor
% Inhibition of BoNT/A LC metalloprotease activity [3]: 63%
concentration at which highly cytotoxic ([5]; chick): 1000 to 5000 nM

C(=C\c1cc2ccc(C3=NCCN3)cc2[nH]1)/c1cc2ccc(C3=NCCN3)cc2[nH]1 [NSC 317880]
inhibition of protease activity of anthrax lethal factor [2]: inhibit the protease activity of anthrax lethal factor
% Inhibition of BoNT/A LC metalloprotease activity [3]: 35%

c1cc2cc(-c3ccc(-c4cc5ccc(C6=NCCN6)cc5[nH]4)cc3)[nH]c2cc1C1=NCCN1 [NSC 317881]
inhibition of protease activity of anthrax lethal factor [2]: inhibit the protease activity of anthrax lethal factor
% Inhibition of BoNT/A LC metalloprotease activity [3]: 45%

C(=C\c1cc2cc(C3=NCCN3)ccc2s1)/c1ccc(C2=NCCN2)cc1 [NSC 317883]
% Inhibition of BoNT/A LC metalloprotease activity [3]: 41%

N=C(N)c1ccc(/C=C/c2cc3cc(C(=N)N)ccc3[nH]2)cc1 [NSC 317884]
inhibition of protease activity of anthrax lethal factor [2]: inhibit the protease activity of anthrax lethal factor
% Inhibition of BoNT/A LC metalloprotease activity [3]: 47%

N=C(N)c1ccc(/C=C/c2cc3ccc(C(=N)N)cc3[nH]2)cc1 [NSC 317886]
inhibition of protease activity of anthrax lethal factor [2]: inhibit the protease activity of anthrax lethal factor
% Inhibition of BoNT/A LC metalloprotease activity [3]: 43%

CCN(CC)CCCNc1cc(C)nc2c1ccc1c2ccc2c(NCCCN(CC)CC)cc(C)nc21 [NSC 328398]
inhibition at 10 µM ([3]; at 10 μM): 45%

c1cc2cc(-c3cc4ccc(C5=NCCN5)cc4[nH]3)[nH]c2cc1C1=NCCN1 [NSC 330688]
% Inhibition of BoNT/A LC metalloprotease activity [3]: 43%

C(=C\c1cc2ccc(C3=NCCN3)cc2[nH]1)/c1ccc(Oc2ccc(C3=NCCN3)cc2)cc1 [NSC 330690]
% Inhibition of BoNT/A LC metalloprotease activity [3]: 53%

C(=C\c1cc2ccc(C3=NCCN3)cc2[nH]1)/c1ccc2cc(C3=NCCN3)[nH]c2c1 [NSC 341907]
inhibition of protease activity of anthrax lethal factor [2]: inhibit the protease activity of anthrax lethal factor
% Inhibition of BoNT/A LC metalloprotease activity [3]: 60%

N=C(N)N/N=C/c1ccc(-c2cc3ccc(/C=N/NC(=N)N)cc3s2)cc1 [NSC 341909]
inhibition of protease activity of anthrax lethal factor [2]: inhibit the protease activity of anthrax lethal factor
% Inhibition of BoNT/A LC metalloprotease activity [3]: 68%
concentration at which highly cytotoxic ([5]; chick): 1000 to 5000 nM

C1=NC(c2ccc3cc(-c4c(-c5ccc(C6=NCCN6)cc5)[nH]c5cc(C6=NCCN6)ccc45)[nH]c3c2)NC1 (stereo not shown) [NSC 341911]
inhibition of protease activity of anthrax lethal factor [2]: inhibit the protease activity of anthrax lethal factor
% Inhibition of BoNT/A LC metalloprotease activity [3]: 37%

C(=C\c1ccc2[nH]c(C3=NCCN3)cc2c1)/c1ccc(Oc2ccc(C3=NCCN3)cc2)cc1 [NSC 352341]
% Inhibition of BoNT/A LC metalloprotease activity [3]: 40%

C(=C/c1cc2cc(C3=NCCN3)ccc2o1)/c1cc2cc(C3=NCCN3)ccc2o1 [NSC 607617]
% Inhibition of BoNT/A LC metalloprotease activity [3]: 36%

C[C@H](CS)C(=O)N1CCC[C@H]1C(=O)O [captopril]
inhibition of BoNT/A LC by known protease inhibitors [6]: inhibited by mM concentrations

CCOC(=O)[C@H](CCc1ccccc1)N[C@@H](C)C(=O)N1CCC[C@H]1C(=O)O [enalapril]
inhibition of BoNT/A LC by known protease inhibitors [6]: inhibited by mM concentrations

NCCCC[C@H](N[C@@H](CCc1ccccc1)C(=O)O)C(=O)N1CCC[C@H]1C(=O)O [lysinopril]
inhibition of BoNT/A LC by known protease inhibitors [6]: inhibited by mM concentrations

CRATKML
inhibitor potency in words [6]: potent inhibitor
